Reference: patent US6355799B1, “Substituted benzene compounds, process for their preparation, and herbicidal and defoliant compositions containing them” (ISK Americas Incorporated, priority 1997, dated 2002)

Key:
Type in all cases: in vivo
[1] = test system: redroot pigweed (Amaranthus retroflexus, AMARE); assay: Pre-emerge test, greenhouse herbicide activity screening; conditions: rated 14 days after application, 0 = no damage, 100 = complete death
Procedure, shortened: (§1)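 Rating: 0–100 visual injury, 14 DAA. Application: acetone, 187 l/ha, 15–1000 g ai/ha, flat-fan track sprayer with nozzle 40–45 cm above soil or canopy. Post-emerge runs used 0.25% v/v surfactant on 2–3 leaf plants.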

[2] = test system: barnyardgrass (Echinochloa crus-galli, ECHCG); assay: as above; conditions: rated 14 days after application, 0 = no damage, 100 = complete death
Procedure, shortened: (§2)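 Sandy loam pots; pre-emerge: sown 1 d pre-spray, surface-watered after, then bottom-watered. Post-emerge: sown 8–21 d before, 2–3 leaf stage, + 0.25% v/v NIS, bottom-watered. Acetone, 187 l/ha track spray, 15–1000 g ai/ha. 0–100 injury score, day 14.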

[3] = test system: common ragweed (Ambrosia artemisizfolia L., AMBEL); assay: as above; conditions: rated 14 days after application, 0 = no damage, 100 = complete death
Procedure, shortened: as §2

[4] = test system: green foxtail (Setaria viridis, SETVI); assay: as above; conditions: rated 14 days after application, 0 = no damage, 100 = complete death
Procedure, shortened: as §2

[5] = test system: ivyleaf morningglory (Ipomoea hederacea, IPOHE); assay: as above; conditions: rated 14 days after application, 0 = no damage, 100 = complete death
Procedure, shortened: as §2

[6] = test system: johnsongrass (Sorghum halepense, SORHA); assay: as above; conditions: rated 14 days after application, 0 = no damage, 100 = complete death
Procedure, shortened: as §2

[7] = test system: lambsquarters (Chenopodium album, CHEAL); assay: as above; conditions: rated 14 days after application, 0 = no damage, 100 = complete death
Procedure, shortened: as §2

[8] = test system: large crabgrass (Digitaria sanguinalis, DIGSA); assay: as above; conditions: rated 14 days after application, 0 = no damage, 100 = complete death
Procedure, shortened: as §2

[9] = test system: sicklepod (Cassia obtusifolia, CASOB); assay: as above; conditions: rated 14 days after application, 0 = no damage, 100 = complete death
Procedure, shortened: as §2

[10] = test system: velvetleaf (Abutilon theophrasti, ABUTH); assay: as above; conditions: rated 14 days after application, 0 = no damage, 100 = complete death
Procedure, shortened: as §2

[11] = test system: field corn (Zea mays L., var. Dekalb 535, CORN); assay: Pre-emerge test, crop safety; conditions: rated 14 days after application, 0 = no damage, 100 = complete death
Procedure, shortened: as §1

[12] = test system: upland rice (Oryza sp., var. Tebonnet, RICE); assay: Pre-emerge test, crop safety; conditions: rated 14 days after application, 0 = no damage, 100 = complete death
Procedure, shortened: as §1

[13] = test system: barnyardgrass (Echinochloa crus-galli, ECHCG); assay: Post-emerge test, greenhouse herbicide activity screening; conditions: post-emerge, 14 days after application, rating scale 0-100
Procedure, shortened: (§3)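 Each test used a mechanized track sprayer delivering 187 l/ha of acetone solution at 15–1000 g ai/ha. Post-emerge foliage at 2–3 leaves was treated with added 0.25% v/v non-ionic surfactant and bottom-watered only. Injury was assessed on day 14, where 100 means total kill.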

[14] = test system: common ragweed (Ambrosia artemisizfolia L., AMBEL); assay: as above; conditions: post-emerge, 14 days after application, rating scale 0-100
Procedure, shortened: as §3

[15] = test system: green foxtail (Setaria viridis, SETVI); assay: as above; conditions: post-emerge, 14 days after application, rating scale 0-100
Procedure, shortened: as §3

[16] = test system: ivyleaf morningglory (Ipomoea hederacea, IPOHE); assay: as above; conditions: post-emerge, 14 days after application, rating scale 0-100
Procedure, shortened: as §3

[17] = test system: johnsongrass (Sorghum halepense, SORHA); assay: as above; conditions: post-emerge, 14 days after application, rating scale 0-100
Procedure, shortened: as §3

[18] = test system: lambsquarters (Chenopodium album, CHEAL); assay: as above; conditions: post-emerge, 14 days after application, rating scale 0-100
Procedure, shortened: as §3

[19] = test system: large crabgrass (Digitaria sanguinalis, DIGSA); assay: as above; conditions: post-emerge, 14 days after application, rating scale 0-100
Procedure, shortened: as §3

[20] = test system: redroot pigweed (Amaranthus retroflexus, AMARE); assay: as above; conditions: post-emerge, 14 days after application, rating scale 0-100
Procedure, shortened: as §3

[21] = test system: sicklepod (Cassia obtusifolia, CASOB); assay: as above; conditions: post-emerge, 14 days after application, rating scale 0-100
Procedure, shortened: as §3

[22] = test system: velvetleaf (Abutilon theophrasti, ABUTH); assay: as above; conditions: post-emerge, 14 days after application, rating scale 0-100
Procedure, shortened: as §3

[23] = test system: field corn (Zea mays L., var. Dekalb 535, CORN); assay: Post-emerge test, crop safety; conditions: post-emerge, 14 days after application, rating scale 0-100
Procedure, shortened: as §2

[24] = test system: upland rice (Oryza sp., var. Tebonnet, RICE); assay: Post-emerge test, crop safety; conditions: post-emerge, 14 days after application, rating scale 0-100
Procedure, shortened: as §2

SMILES: COc1c(Cl)cc(F)c(-n2c(=O)cc(C(F)(F)F)n(C)c2=O)c1NC(=O)c1c(F)cccc1F [2-47]
- Pre-emerge Herbicidal Activity, phytotoxicity rating (0-100), AMARE ([1]; 63 g ai/ha): 100
- Pre-emerge Herbicidal Activity, phytotoxicity rating (0-100), AMARE ([1]; 250 g ai/ha): 100
- Pre-emerge Herbicidal Activity, phytotoxicity rating (0-100), ECHCG ([2]; 63 g ai/ha): 0
- Pre-emerge Herbicidal Activity, phytotoxicity rating (0-100), ECHCG ([2]; 250 g ai/ha): 99
- Pre-emerge Herbicidal Activity, phytotoxicity rating (0-100), AMBEL ([3]; 63 g ai/ha): 50
- Pre-emerge Herbicidal Activity, phytotoxicity rating (0-100), AMBEL ([3]; 250 g ai/ha): 100
- Pre-emerge Herbicidal Activity, phytotoxicity rating (0-100), SETVI ([4]; 63 g ai/ha): 100
- Pre-emerge Herbicidal Activity, phytotoxicity rating (0-100), SETVI ([4]; 250 g ai/ha): 100
- Pre-emerge Herbicidal Activity, phytotoxicity rating (0-100), IPOHE ([5]; 63 g ai/ha): 100
- Pre-emerge Herbicidal Activity, phytotoxicity rating (0-100), IPOHE ([5]; 250 g ai/ha): 100
- Pre-emerge Herbicidal Activity, phytotoxicity rating (0-100), SORHA ([6]; 63 g ai/ha): 60
- Pre-emerge Herbicidal Activity, phytotoxicity rating (0-100), SORHA ([6]; 250 g ai/ha): 90
- Pre-emerge Herbicidal Activity, phytotoxicity rating (0-100), CHEAL ([7]; 63 g ai/ha): 100
- Pre-emerge Herbicidal Activity, phytotoxicity rating (0-100), CHEAL ([7]; 250 g ai/ha): 100
- Pre-emerge Herbicidal Activity, phytotoxicity rating (0-100), DIGSA ([8]; 63 g ai/ha): 100
- Pre-emerge Herbicidal Activity, phytotoxicity rating (0-100), DIGSA ([8]; 250 g ai/ha): 100
- Pre-emerge Herbicidal Activity, phytotoxicity rating (0-100), CASOB ([9]; 63 g ai/ha): 90
- Pre-emerge Herbicidal Activity, phytotoxicity rating (0-100), CASOB ([9]; 250 g ai/ha): 100
- Pre-emerge Herbicidal Activity, phytotoxicity rating (0-100), ABUTH ([10]; 63 g ai/ha): 100
- Pre-emerge Herbicidal Activity, phytotoxicity rating (0-100), ABUTH ([10]; 250 g ai/ha): 100
- Pre-emerge phytotoxicity rating (0-100), crop damage, CORN ([11]; 63 g ai/ha): 40
- Pre-emerge phytotoxicity rating (0-100), crop damage, CORN ([11]; 250 g ai/ha): 99
- Pre-emerge phytotoxicity rating (0-100), crop damage, RICE ([12]; 63 g ai/ha): 70
- Pre-emerge phytotoxicity rating (0-100), crop damage, RICE ([12]; 250 g ai/ha): 95
- phytotoxicity rating ECHCG ([13]; 63 g ai/ha): 0
- phytotoxicity rating ECHCG ([13]; 250 g ai/ha): 10
- phytotoxicity rating AMBEL ([14]; 63 g ai/ha): 50
- phytotoxicity rating AMBEL ([14]; 250 g ai/ha): 90
- phytotoxicity rating SETVI ([15]; 63 g ai/ha): 20
- phytotoxicity rating SETVI ([15]; 250 g ai/ha): 30
- phytotoxicity rating IPOHE ([16]; 63 g ai/ha): 70
- phytotoxicity rating IPOHE ([16]; 250 g ai/ha): 100
- phytotoxicity rating SORHA ([17]; 63 g ai/ha): 0
- phytotoxicity rating SORHA ([17]; 250 g ai/ha): 0
- phytotoxicity rating CHEAL ([18]; 63 g ai/ha): 80
- phytotoxicity rating CHEAL ([18]; 250 g ai/ha): 100
- phytotoxicity rating DIGSA ([19]; 63 g ai/ha): 0
- phytotoxicity rating DIGSA ([19]; 250 g ai/ha): 0
- phytotoxicity rating AMARE ([20]; 63 g ai/ha): 90
- phytotoxicity rating AMARE ([20]; 250 g ai/ha): 100
- phytotoxicity rating CASOB ([21]; 63 g ai/ha): 70
- phytotoxicity rating CASOB ([21]; 250 g ai/ha): 100
- phytotoxicity rating ABUTH ([22]; 63 g ai/ha): 100
- phytotoxicity rating ABUTH ([22]; 250 g ai/ha): 100
- phytotoxicity rating CORN ([23]; 63 g ai/ha): 10
- phytotoxicity rating CORN ([23]; 250 g ai/ha): 15
- phytotoxicity rating RICE ([24]; 63 g ai/ha): 20
- phytotoxicity rating RICE ([24]; 250 g ai/ha): 45
